Laboratory results as given in patent US9394371B2, “Antibody-mediated disruption of quorum sensing in bacteria” (The Scripps Research Institute, priority 2007, dated 2016).

Tested on: S. aureus RN4850
Assay type: cell-based

YSTCYFIM (SEQ ID NO: 123) (thiolactone cyclisation; listed as Staphylococcus aureus) [AIP-4, native S. aureus group IV autoinducing peptide, synthesized, reference compound]
α-hemolysin expression after adding synthetic AIP-4 to AP4-24H11: fully restored expression of α-hemolysin
